Experimental findings from patent US20260234140A1, “PYRIDOPYRIMIDINE DERIVATIVE AND USE THEREOF” (SUNSHINE LAKE PHARMA CO., LTD., priority 2023, published 2026) are described below.

The subject of the experiment is PD1/PD-L1 pathway. Kind of experiment: PD1/PD-L1 Blockade Bioassay, inhibition of the PD1/PD-L1 pathway at the cellular level (luciferase reporter, PD-1 Jukat T cells co-cultured with PD-L1 aAPC/CHO-K1 cells). The experiment is classed as cell-based. The following applies: T-cell; for pEC50: PD-1 Jukat T cells + PD-L1 aAPC/CHO-K1 cells, 6 h co-culture, ONE-Glo luciferase readout; for Emax: maximum % Activity relative to atezolizumab (set to 100%). The protocol: Experiment 1: Detecting the Inhibitory Activity of Compounds on the PD1/PD-L1 Pathway at the Cellular Level Using the PD1/PD-L1 Blockade Bioassay Method
PD-1 Jukat T cells were revived and cultured with 1640 medium containing 100 μg/mL Hygromycin B, […] Puromycin, 10% FBS and 1% dual antibody; PD-L1 aAPC/CHO-K1 cells were revived and cultured with F12K medium containing 100 μg/mL Hygromycin B, 200 μg/mL G418, 10% FBS and 1% dual antibody.
The revived cells need to be passaged 2-3 times. When the cells enter the exponential growth phase with good growth status, the PD-L1 aAPC/CHO-K1 was digested with trypsin, and the cells were resuspended in F12K containing 5% FBS and adjusted to a density of 5×10^5 cells/mL. 20 μl/well were plated in a 384-well plate (10,000 cells/well) and incubated in an incubator overnight for 16-20 h.
a Preparation of compound stock solution: Dissolve the compound to be tested in DMSO to prepare a 20 mM stock solution.
b Compound gradient dilution: dilute the compound in 1640 medium containing 5% FBS without antibiotics or phenol red, and make 3-fold gradient dilutions to prepare 10 concentration gradients (2×).
c Adding drugs: Take out the cell culture plate, discard the supernatant, add 20 μl/well of the prepared compound, and incubate in the incubator for 1.5 h.
PD-1 Jukat T cells were collected, washed once with PBS, and resuspended in 1640 medium containing 5% FBS without antibiotics or phenol red. The density was adjusted to 1×10^6 cells/mL. 20 μl PD-1 Jukat T cells (20,000 cells/well) were added to each well and incubated in the incubator for 6 h.
ONE-Glo™ Luciferase Assay reagent was thawed to room temperature in advance and then added to a 384-well plate at 40 µl/well. Incubate in the dark for 15 minutes and read the […] signal on a plate reader.
[formula] • Among them, % Activity: % Activity • RLU: Resulting Luminescence unit • RLUvehicle: Average RLU value of negative control wells on each plate • RLUpositive: Average RLU value of positive control wells on each plate • Vehicle control: DMSO (0.1%) corresponding to the test value was used as negative control (its % Activity was 0%); • Positive control: The highest detection value at the atezolizumab administration concentration was used as the positive control (its % Activity was 100%). • (2) EC50 value calculation method: The EC50 value was obtained by the nonlinear fitting formula of Graph Pad Prism 8.0 software. The calculation formula is as follows:
Y=Bottom+(Top−Bottom)/(1+10^((Log EC50−X)×HillSlope)) • X: log of activator concentration (logarithm of compound concentration); Y: % Activity • (3) Emax definition: The maximum % Activity value corresponding to the maximum activation value of the compound relative to atezolizumab (the activation value is set to 100%).
(Reporter assays use an easily measured gene product as a stand-in for the process of interest.)

Each structure is given as a SMILES string. pEC50: −log10 of the molar value.

As to `COc1nc(-c2cccc(-c3cccc(Nc4nc(C(F)F)nc5cc(CN6CC[C@@H](O)C6)cnc45)c3C)c2Cl)cnc1CN1CCC(C(=O)O)CC1` [Example 15, (R)-1-((5-(2-chloro-3′-((2-(difluoromethyl)-7-((3-hydroxypyrrolidin-1-yl)methyl)pyrido[3,2-d]pyrimidin-4-yl)amino)-2′-methyl-[1,1′-biphenyl]-3-yl)-3-methoxypyrazin-2-yl)methyl)piperidine-4-carboxylic acid], the negative-log EC50 (pEC50) is 7.38 and the Emax was 97%.

Consider `COc1nc(-c2cccc(-c3cccc(Nc4nc(C(F)F)nc5cc(CN6CC[C@@H](O)C6)cnc45)c3Cl)c2Cl)ccc1CN(C)[C@H]1CC[C@H](C(=O)O)CC1` [Example 16, (1r,4r)-4-(((6-(2,2′-dichloro-3′-((2-(difluoromethyl)-7-(((R)-3-hydroxypyrrolidin-1-yl)methyl)pyrido[3,2-d]pyrimidin-4-yl)amino)-[1,1′-biphenyl]-3-yl)-2-methoxypyridin-3-yl)methyl)(methyl)amino)cyclohexane-1-carboxylic acid], for which the negative-log EC50 (pEC50) was 7.55 and the Emax was 107%.

As for `COc1nc(-c2cccc(-c3cccc(Nc4nc(C(F)F)nc5cc(CN6CC[C@H]([C@H](C)O)C6)cnc45)c3C)c2Cl)cnc1CN(C)[C@H]1CC[C@H](C(=O)O)CC1` [Example 45, (1r,4r)-4-(((5-(2-chloro-3′-((2-(difluoromethyl)-7-(((S)-3-((S)-1-hydroxyethyl)pyrrolidin-1-yl)methyl)pyrido[3,2-d]pyrimidin-4-yl)amino)-2′-methyl-[1,1′-biphenyl]-3-yl)-3-methoxypyrazin-2-yl)methyl)(methyl)amino)cyclohexane-1-carboxylic acid], the pEC50 is 7.02 and the Emax turned out to be 87.3%.

`COc1nc(-c2cccc(-c3cccc(Nc4nc(C(F)F)nc5cc(CN6CC[C@@H](O)C6)cnc45)c3C)c2Cl)cnc1CN(C)[C@H]1CC[C@H](C(=O)O)C1` [Example 52, (1S,3S)-3-(((5-(2-chloro-3′-((2-(difluoromethyl)-7-(((R)-3-hydroxypyrrolidin-1-yl)methyl)pyrido[3,2-d]pyrimidin-4-yl)amino)-2′-methyl-[1,1′-biphenyl]-3-yl)-3-methoxypyrazin-2-yl)methyl)(methyl)amino)cyclopentane-1-carboxylic acid]: the negative logarithm of the EC50 (pEC50) is 7.12 and the Emax came to 74.3%.

For the molecule `COc1nc(-c2cccc(-c3cccc(Nc4nc(C(F)F)nc5cc(CN6CC[C@H](O)C6)cnc45)c3C)c2Cl)cnc1CN[C@@H]1CCOC[C@@H]1O` [Example 51, (S)-1-((4-((2′-chloro-3′-(5-((((3R,4R)-3-hydroxytetrahydro-2H-pyran-4-yl)amino)methyl)-6-methoxypyrazin-2-yl)-2-methyl-[1,1′-biphenyl]-3-yl)amino)-2-(difluoromethyl)pyrido[3,2-d]pyrimidin-7-yl)methyl)pyrrolidin-3-ol], the negative-log EC50 (pEC50) was 7.00 and the Emax worked out at 96%.

As for `COc1nc(-c2cccc(-c3cccc(Nc4nc(C(F)F)nc5cc(CN6CC[C@@H](O)C6)cnc45)c3C)c2Cl)ccc1CN(C)CC12CCC(C(=O)O)(CC1)C2` [Example 10, (R)-4-((((6-(2-chloro-3′-((2-(difluoromethyl)-7-((3-hydroxypyrrolidin-1-yl)methyl)pyrido[3,2-d]pyrimidin-4-yl)amino)-2′-methyl-[1,1′-biphenyl]-3-yl)-2-methoxypyridin-3-yl)methyl)(methyl)amino)methyl)bicyclo[2.2.1]heptane-1-carboxylic acid], the negative-log EC50 (pEC50) is 7.15 and the Emax was determined as 79.3%.

Consider `COc1nc(-c2cccc(-c3cccc(Nc4nc(C(F)F)nc5cc(CN6CCC[C@H]6C)cnc45)c3C)c2Cl)cnc1CN(C)[C@H]1CC[C@H](C(=O)O)CC1` [Example 41], for which the pEC50 was 7.04 and the maximal effect (Emax) was determined as 79%.

Regarding `COc1nc(-c2cccc(-c3cccc(Nc4nc(C(F)F)nc5cc(CN6CC[C@@H](O)C6)cnc45)c3C)c2Cl)cnc1CN[C@H]1CC[C@H](C(=O)O)CC1` [Example 33, (1r,4r)-4-(((5-(2-chloro-3′-((2-(difluoromethyl)-7-(((R)-3-hydroxypyrrolidin-1-yl)methyl)pyrido[3,2-d]pyrimidin-4-yl)amino)-2′-methyl-[1,1′-biphenyl]-3-yl)-3-methoxypyrazin-2-yl)methyl)amino)cyclohexane-1-carboxylic acid], the negative-log EC50 (pEC50) was 7.23 and the Emax came out at 95.3%.

Regarding `COc1nc(-c2cccc(-c3cccc(Nc4nc(C(F)F)nc5cc(CN6CCC(O)CC6)cnc45)c3C)c2Cl)cnc1CN(C)[C@H]1CC[C@H](C(=O)O)CC1` [Example 21, (1r,4r)-4-(((5-(2-chloro-3′-((2-(difluoromethyl)-7-((4-hydroxypiperidin-1-yl)methyl)pyrido[3,2-d]pyrimidin-4-yl)amino)-2′-methyl-[1,1′-biphenyl]-3-yl)-3-methoxypyrazin-2-yl)methyl)(methyl)amino)cyclohexane-1-carboxylic acid], the pEC50 was 6.98 and the maximal effect (Emax) worked out at 65%.

On to `COc1nc(-c2cccc(-c3cccc(Nc4nc(C(F)F)nc5cc(CN6CC(C)(O)C6)cnc45)c3C)c2Cl)cnc1CN(C)[C@H]1CC[C@H](C(=O)O)CC1` [Example 19, (1r,4r)-4-(((5-(2-chloro-3′-((2-(difluoromethyl)-7-((3-hydroxy-3-methylazetidin-1-yl)methyl)pyrido[3,2-d]pyrimidin-4-yl)amino)-2′-methyl-[1,1′-biphenyl]-3-yl)-3-methoxypyrazin-2-yl)methyl)(methyl)amino)cyclohexane-1-carboxylic acid], for which the pEC50 was 7.36 and the Emax stood at 80%.

With `COc1nc(-c2cccc(-c3cccc(Nc4nc(C(F)F)nc5cc(CN6CC[C@@H](OC(F)F)C6)cnc45)c3C)c2Cl)cnc1CN(C)[C@H]1CC[C@H](C(=O)O)CC1` [Example 42, (1r,4r)-4-(((5-(2-chloro-3′-((7-(((R)-3-(difluoromethoxy)pyrrolidin-1-yl)methyl)-2-(difluoromethyl)pyrido[3,2-d]pyrimidin-4-yl)amino)-2′-methyl-[1,1′-biphenyl]-3-yl)-3-methoxypyrazin-2-yl)methyl)(methyl)amino)cyclohexane-1-carboxylic acid], the negative logarithm of the EC50 (pEC50) is 7.04 and the Emax is 74%.

As for `COc1nc(-c2cccc(-c3cccc(Nc4nc(C(F)F)nc5cc(CN6CC[C@@H](O)C6)cnc45)c3C)c2Cl)cnc1CN(C)C[C@H]1CC[C@H](C(=O)O)CC1` [Example 14, (1r,4r)-4-((((5-(2-chloro-3′-((2-(difluoromethyl)-7-(((R)-3-hydroxypyrrolidin-1-yl)methyl)pyrido[3,2-d]pyrimidin-4-yl)amino)-2′-methyl-[1,1′-biphenyl]-3-yl)-3-methoxypyrazin-2-yl)methyl)(methyl)amino)methyl)cyclohexane-1-carboxylic acid], the pEC50 was 7.50 and the Emax was 103%.

Regarding `COc1nc(-c2cccc(-c3cccc(Nc4nc(C(F)F)nc5cc(CN6CC[C@H](O)C6)cnc45)c3C)c2Cl)cnc1CN1CC[C@H](O)C1` [Example 50, (S)-1-((5-(2-chloro-3′-((2-(difluoromethyl)-7-(((S)-3-hydroxypyrrolidin-1-yl)methyl)pyrido[3,2-d]pyrimidin-4-yl)amino)-2′-methyl-[1,1′-biphenyl]-3-yl)-3-methoxypyrazin-2-yl)methyl)pyrrolidin-3-ol], the pEC50 is 7.00 and the maximum response (Emax) stood at 96%.

By pEC50 is commonly meant the EC50 on a negative log10 scale, so that one unit is a factor of ten. The Emax is the size of the effect at its maximum, as opposed to the concentration needed.
